Test results published in US20140249490A1, “Methods for Prevention and/or Treatment of Capsular Contracture” (J&E SOLUTIONS, LLC, priority 2013, published 2014).

Tested on: capsular contracture
Assay: Clinical cases: topical treatment of breast capsular contracture, Baker grading
Type: in vivo, human
Conditions: Patient #1; bilateral Grade 3 capsular contracture, after first revision; given together with massage
Description: Wash and dry the affected area (that is, the skin surrounding the implant or the skin over the capsular contracture) prior to use. Apply the composition daily (use sparingly) with vigorous massage to affected area. If necessary, exert compression or pressure when massaging to break up existing capsule. Enhanced absorption is obtained with application of the composition following a hot shower. Occlusive dressing (hydrogel), or tight clothing (sports bras), will also enhance the result. Continued daily use will yield optimal results. […] Optimal results are best maintained with daily continued application. One particularly useful embodiment of the invention involves the use of the topical compositions for the treatment/prevention of capsular contracture in breast surgery (e.g., breast implants). There are four grades of breast capsular contracture—Baker grades I through IV. The Baker grading is as follows: Grade 1—the breast is normally soft and looks natural Grade II—the breast is a little firm but looks normal Grade III—the breast is firm and looks abnormal Grade IV—the breast is hard, painful, and looks abnormal. of developed or is at risk of developing capsular contracture a topical composition.

COc1ccc2cc([C@H](C)C(=O)O)ccc2c1 [Aleve, naproxen sodium]
response of capsular contracture to treatment: without result
